Measurements published in patent publication US12357570B2, “Chemoembolization agents” (BRUIN BIOSCIENCES, INC., priority 2017, dated 2025).
“Also recorded” adds a separate entry of the source.

How the values were obtained:
[1] = Loading of non-encapsulated drug on DC Beads (residual unloaded drug by HPLC); format: physicochemical; conditions: room temperature
Description: A drug-loading solution was prepared by adding sterile water to a vial of doxorubicin hydrochloride powder (Pharmacia & Upjohn, Kalamazoo, MI) to produce a solution of the desired concentration (for the loading experiment 25 mg Doxorubicin salt was dissolved in 5 mL water. 0.043 mmol/5 mL=8.6 mM solution). 1 mL volume of beads was aspirated via syringe, purged of as much liquid as possible, then an aqueous solution Doxorubicin (5 mL, 5 mg/mL concentration) aspirated and mixed with beads. The mixture was dispensed into a sealed vial and left to load at room temperature without agitation and left for a time until the red coloration in the solution had diminished and the beads had taken on a red color. This time was dependent on drug loading solution concentration and bead size.
The extent of drug loading was calculated from the residual unloaded drug content determined by UV/visible HPLC with DAD detector at 220 and 254 nm (Agilent 1100 Series). Estimated uptake of Doxorubicin was approximately 90% loading after 25 hours, and approximately 99% loading after 91 hours.
Sunitinib was loaded to DC Beads® using a procedure similar to that for Example 6. Estimated uptake of Sunitinib was approximately 99% after 6 hours and >99.8% after 24 hours at room temperature.

[2] = after a 24 hour period; previous observations; cited from earlier work
[3] = Loading of liposome-encapsulated drug on DC Beads (supernatant HPLC/MS); format: physicochemical; conditions: for loading on DC Beads: cationic liposomes DOTAP/DOPC; for amount loaded: start of elution, liposomal drug on DC Beads
Description: (§1) This was accomplished via a two-step process: 1) Sorafenib was made water-soluble by encapsulation into an encapsulating agent that is positively charged on its outer surface (cationic liposomes) and 2) association of a plurality of the loaded encapsulating agents so obtained onto microspheres (DC Beads®). In order to accomplish this, Sorafenib para-toluene sulfonate salt (9.1 mg), DOTAP (1,2-dioleoyl-3-trimethylammonium-propane chloride salt, 100 mg) and DOPC (1,2-dioleoyl-sn-glycero-3-phosphocholine, 101.1 mg) were dissolved in ethanol (0.5 mL) and this solution was added dropwise to a 10% trehalose solution (9 mL) under stirring. The resulting viscous emulsion was stirred at room temperature for 5 minutes and then filtered through a manual liposomal extruder using a 200 nm polycarbonate membrane. The resulting unilamellar liposomal solution was lyophilized overnight to yield a white solid, which was reconstituted in deionized water (1.82 mL) to yield a final Sorafenib concentration of 5 mg/mL. DC Beads® (2 mL, having about 200,000 beads with an average bead diameter of about 100-300 microns as measured by light scattering) were drained of as much liquid as possible and treated with the liposomal solution. The concentration of Sorafenib in the supernatant was measured over time by HPLC/MS. After approximately 46 hours, equilibrium was reached and loading of Sorafenib appeared to be approximately 52%. It is possible that saturation was reached and that more beads are needed to increase loading. For elution experiments, the liposomal solution with the DC Beads® was passed through a cotton filter, leaving the DC Beads® on the filter. PBS (1.0 M, pH 7.4) warmed to 37° C. was passed over the beads at 4 mL/min for 60 minutes. Four 40 mL vials were collected and analyzed by HPLC/MS/MS to determine the concentration of Sorafenib in each sample. Ten 3 mL vials were collected and analyzed by HPLC/MS/MS to establish the drug elution kinetics for Sorafenib.
This was accomplished via a two-step process: 1) Regorafenib (4.7229 mg) was made water-soluble by encapsulation into an encapsulating agent that is positively charged on its outer surface (cationic liposomes) and 2) association of a plurality of the loaded encapsulating agents so obtained onto microspheres. In short, Regorafenib (6.9 mg), DOTAP (1,2-dioleoyl-3-trimethylammonium-propane chloride salt, 100 mg) and DOPC (1,2-dioleoyl-sn-glycero-3-phosphocholine, 101.1 mg) were dissolved in ethanol (0.5 mL) and this solution was added dropwise to a 10% trehalose solution (9 mL) under stirring. […] The concentration of Regorafenib in the supernatant was measured over time by HPLC/MS. […] Four 40 mL vials were collected and analyzed by HPLC/MS/MS to determine the concentration of […] in each sample.

[4] = Elution of liposome-encapsulated drug from DC Beads with PBS pH 7.4 at 37° C.; format: physicochemical; conditions: for Remaining drug to be eluted: after Fraction I (solvent-final)
Description: as §1, with “PBS (1.0 M, pH 7.4) warmed to 37° C. was passed over the beads at 4 mL/min for 60 minutes.” left out
This was accomplished via a two-step process: 1) Regorafenib (4.7229 mg) was made water-soluble by encapsulation into an encapsulating agent that is positively charged on its outer surface (cationic liposomes) and 2) association of a plurality of the loaded encapsulating agents so obtained onto microspheres. In short, Regorafenib (6.9 mg), DOTAP (1,2-dioleoyl-3-trimethylammonium-propane chloride salt, 100 mg) and DOPC (1,2-dioleoyl-sn-glycero-3-phosphocholine, 101.1 mg) were dissolved in ethanol (0.5 mL) and this solution was added dropwise to a 10% trehalose solution (9 mL) under stirring. The resulting viscous emulsion was stirred at room temperature for 5 minutes and then filtered through a manual liposomal extruder using a 200 nm polycarbonate membrane. The resulting unilamellar liposomal solution was lyophilized overnight to yield a white solid, which was reconstituted in deionized water (1.8 mL) to yield a final Regorafenib concentration of 5 mg/mL. DC Beads® (2 mL) were drained of as much liquid as possible and treated with the liposomal solution. The concentration of Regorafenib in the supernatant was measured over time by HPLC/MS. After approximately 92 hours, equilibrium was reached and loading of Regorafenib appeared to be approximately 25%. For elution experiments, the liposomal solution with the DC Beads® was passed through a cotton filter, leaving the DC Beads® on the filter. […] Four 40 mL vials were collected and analyzed by HPLC/MS/MS to determine the concentration of […] in each sample.

[5] = cited from earlier work
[6] = human, 400 mg twice daily, cited from earlier work
[7] = Fraction I (solvent-final), time 320 minutes

SMILES	amount loaded [3]	% eluted ([4]; Fraction B, time 40 minutes)	Cumulative elution % ([4]; Fraction B, time 40 minutes)	amount eluted ([4]; Fraction B, time 40 minutes)	% eluted ([4]; Fraction C, time 80 minutes)	Cumulative elution % ([4]; Fraction C, time 80 minutes)	amount eluted ([4]; Fraction C, time 80 minutes)	% eluted ([4]; Fraction D, time 120 minutes)	Cumulative elution % ([4]; Fraction D, time 120 minutes)	amount eluted ([4]; Fraction D, time 120 minutes)	% eluted ([4]; Fraction E, time 160 minutes)	Cumulative elution % ([4]; Fraction E, time 160 minutes)	amount eluted ([4]; Fraction E, time 160 minutes)	% eluted ([4]; Fraction F, time 200 minutes)	Cumulative elution % ([4]; Fraction F, time 200 minutes)	amount eluted ([4]; Fraction F, time 200 minutes)	% eluted ([4]; Fraction G, time 240 minutes)	Cumulative elution % ([4]; Fraction G, time 240 minutes)	amount eluted ([4]; Fraction G, time 240 minutes)	% eluted ([4]; Fraction H, time 280 minutes)	other results
COc1cccc2c1C(=O)c1c(O)c3c(c(O)c1C2=O)C[C@@](O)(C(=O)CO)C[C@@H]3O[C@H]1C[C@H](N)[C@H](O)[C@H](C)O1 [Doxorubicin]	–	–	–	–	–	–	–	–	–	–	–	–	–	–	–	–	–	–	–	–	Estimated uptake (loading) on DC Beads ([1]; after 25 hours): approximately 90%; Estimated uptake (loading) on DC Beads ([1]; after 91 hours): approximately 99%; fraction of drug eluted [2]: about 4%
CNC(=O)c1cc(Oc2ccc(NC(=O)Nc3ccc(Cl)c(C(F)(F)F)c3)c(F)c2)ccn1 [Regorafenib]	2.1931 mg	68.3963%	68.3963%	1.5 mg	2.3255%	70.7218%	0.051 mg	0.0109%	70.7327%	0.00024 mg	0.00286%	70.7356%	0.0000628 mg	0.0017%	70.7373%	0.0000372 mg	0.0017%	70.739%	0.0000364 mg	0.0049%	loading on DC Beads ([3]; equilibrium after approximately 92 hours): approximately 25%; Cumulative elution % ([4]; Fraction H, time 280 minutes): 70.7439%; amount eluted ([4]; Fraction H, time 280 minutes): 0.000108 mg; % eluted [4, 7]: 3.5384%; Cumulative elution % [4, 7]: 74.2823%; amount eluted [4, 7]: 0.0776 mg; Remaining drug to be eluted [4]: 0.5723 mg; water solubility [5]: poor
CNC(=O)c1cc(Oc2ccc(NC(=O)Nc3ccc(Cl)c(C(F)(F)F)c3)cc2)ccn1 [Sorafenib, 4-{4-[3-(4-chloro-3-trifluoro-phenyl)-ureido]-phenoxyl}-pyridine-2-carboxylic methylamine]	4.7229 mg	65.4259%	65.4259%	3.09 mg	10.6714%	76.0973%	0.504 mg	0.6479%	76.7452%	0.0306 mg	0.6924%	77.4376%	0.0327 mg	0.1912%	77.6287%	0.00903 mg	0.1188%	77.7475%	0.00561 mg	0.00648%	loading on DC Beads ([3]; equilibrium after approximately 46 hours): approximately 52%; Cumulative elution % ([4]; Fraction H, time 280 minutes): 77.754%; amount eluted ([4]; Fraction H, time 280 minutes): 0.000306 mg; % eluted [4, 7]: 4.9292%; Cumulative elution % [4, 7]: 82.68%; amount eluted [4, 7]: 0.2328 mg; Remaining drug to be eluted [4]: 0.8179 mg; concentration released in smaller increments thereafter ([4]; after initial release): 0.2 µM; drug remained on the beads ([4]; after the last elution time point): Approximately 17%; concentration released initially ([4]; initial release from beads): 4 to 20 µM; fraction of loaded drug eluted ([4]; over 40 minutes): approximately 2%; mean t½ [6]: 27.4 h; Cmax ([6]; read-out: Cmax in plasma): ~11.6 µM; solubility in alcohol ([5]; alcohol): slightly soluble; solubility in polyethylene glycol 400 ([5]; polyethylene glycol 400): fully soluble; water solubility [5]: mostly insoluble; also recorded: very poor
